Test system: MV-4-11 cells
Test: Gene expression microarray analysis (Affymetrix PrimeView) and GSEA
Format: cell-based, human
Set-up: RFU PODN (11730768_x_at) / Fold change /veh PODN (11730768_x_at) / RFU LINC00158 (11744669_a_at) / Fold change /veh LINC00158 (11744669_a_at) / RFU DUSP10 (11751237_a_at) / Fold change /veh DUSP10 (11751237_a_at) / RFU ID3 (11757404_x_at) / Fold change /veh ID3 (11757404_x_at) / RFU PLEKHG5 (11737974_s_at) / Fold change /veh PLEKHG5 (11737974_s_at) / RFU LRRC4B (11730491_at) / Fold change /veh LRRC4B (11730491_at) / RFU GIMAP4 (11747438_a_at) / Fold change /veh GIMAP4 (11747438_a_at) / RFU KRT8 (11758183_x_at) / Fold change /veh KRT8 (11758183_x_at) / RFU CNN1 (11734310_a_at) / Fold change /veh CNN1 (11734310_a_at) / RFU VPS37D (11726825_at) / Fold change /veh VPS37D (11726825_at) / RFU C10orf10 (11716522_x_at) / Fold change /veh C10orf10 (11716522_x_at) / RFU KIR2DL2 /// KIR2DL4 /// KIR2DL5A /// KIR2DL5B /// KIR2DS1 /// KIR2DS2 /// KIR2DS3 /// KIR2DS4 /// KIR3DL3 /// KIR3DL3 /// KIR3DS1 (11738374_at) / Fold change /veh KIR2DL2 /// KIR2DL4 /// KIR2DL5A /// KIR2DL5B /// KIR2DS1 /// KIR2DS2 /// KIR2DS3 /// KIR2DS4 /// KIR3DL3 /// KIR3DL3 /// KIR3DS1 (11738374_at) / RFU C1QL1 (11718748_at) / Fold change /veh C1QL1 (11718748_at) / RFU TMPRSS4 (11747572_a_at) / Fold change /veh TMPRSS4 (11747572_a_at) / RFU HAMP (11756126_x_at) / Fold change /veh HAMP (11756126_x_at) / RFU RNFT2 (11725882_a_at) / Fold change /veh RNFT2 (11725882_a_at) / RFU NR4A2 (11747474_a_at) / Fold change /veh NR4A2 (11747474_a_at) / RFU ABCC12 (11746883_a_at) / Fold change /veh ABCC12 (11746883_a_at) / RFU TMEM136 (11760407_x_at) / Fold change /veh TMEM136 (11760407_x_at) / RFU CLDN22 /// WWC2 (11732394_at) / Fold change /veh CLDN22 /// WWC2 (11732394_at) / RFU HLA-DPB1 (11760878_x_at) / Fold change /veh HLA-DPB1 (11760878_x_at) / RFU SPINT1 (11716480_a_at) / Fold change /veh SPINT1 (11716480_a_at) / RFU GAP43 (11754022_s_at) / Fold change /veh GAP43 (11754022_s_at) / RFU A4GNT (11735810_at) / Fold change /veh A4GNT (11735810_at) / RFU PRB3 (11715151_x_at) / Fold change /veh PRB3 (11715151_x_at) / RFU TUBB4B (11761932_at) / Fold change /veh TUBB4B (11761932_at) / RFU CAPN14 (11732068_a_at) / Fold change /veh CAPN14 (11732068_a_at) / RFU TMCC2 (11721928_a_at) / Fold change /veh TMCC2 (11721928_a_at) / RFU IRGQ (11745062_a_at) / Fold change /veh IRGQ (11745062_a_at) / RFU FAM174B (11720279_a_at) / Fold change /veh FAM174B (11720279_a_at) / RFU TMPRSS4 (11748680_a_at) / Fold change /veh TMPRSS4 (11748680_a_at) / RFU FAM212B (11763350_a_at) / Fold change /veh FAM212B (11763350_a_at) / RFU PLEKHG5 (11743358_a_at) / Fold change /veh PLEKHG5 (11743358_a_at) / RFU ZSCAN30 (11745921_a_at) / Fold change /veh ZSCAN30 (11745921_a_at) / RFU CMKLR1 (11741424_a_at) / Fold change /veh CMKLR1 (11741424_a_at) / RFU LOC101060620 /// MAPK8IP1 (11723275_at) / Fold change /veh LOC101060620 /// MAPK8IP1 (11723275_at) / RFU SPTSSB (11747773_x_at) / Fold change /veh SPTSSB (11747773_x_at) / RFU PRSS12 (11739890_at) / Fold change /veh PRSS12 (11739890_at) / RFU BIN1 (11741810_x_at) / Fold change /veh BIN1 (11741810_x_at) / RFU WNT11 (11732464_a_at) / Fold change /veh WNT11 (11732464_a_at) / RFU C10orf10 (11716521_a_at) / Fold change /veh C10orf10 (11716521_a_at) / RFU C5orf56 (11738089_at) / Fold change /veh C5orf56 (11738089_at) / RFU CYB561 (11721691_x_at) / Fold change /veh CYB561 (11721691_x_at) / RFU ANKRD19P (11752326_a_at) / Fold change /veh ANKRD19P (11752326_a_at) / RFU OR2T12 /// OR2T33 /// OR2T8 (11738714_s_at) / Fold change /veh OR2T12 /// OR2T33 /// OR2T8 (11738714_s_at) / RFU VCAN (11748164_a_at) / Fold change /veh VCAN (11748164_a_at) / RFU JSRP1 (11732532_at) / Fold change /veh JSRP1 (11732532_at) / RFU KRTAP10-11 (11738290_x_at) / Fold change /veh KRTAP10-11 (11738290_x_at) / RFU MYO3A (11730013_a_at) / Fold change /veh MYO3A (11730013_a_at) / RFU EBF3 (11725865_a_at) / Fold change /veh EBF3 (11725865_a_at) / RFU CAMK2N1 (11719241_x_at) / Fold change /veh CAMK2N1 (11719241_x_at) / RFU C5orf56 (11738088_a_at) / Fold change /veh C5orf56 (11738088_a_at) / RFU OLFML3 (11715873_a_at) / Fold change /veh OLFML3 (11715873_a_at) / RFU LOC100653217 /// NTM (11731650_a_at) / Fold change /veh LOC100653217 /// NTM (11731650_a_at) / RFU MAPK11 (11762145_a_at) / Fold change /veh MAPK11 (11762145_a_at) / RFU FIZ1 (11724087_x_at) / Fold change /veh FIZ1 (11724087_x_at) / RFU OASL (11726364_x_at) / Fold change /veh OASL (11726364_x_at) / RFU SOX15 (11748057_x_at) / Fold change /veh SOX15 (11748057_x_at) / RFU CD79A (11719716_a_at) / Fold change /veh CD79A (11719716_a_at) / RFU HIST1H1D (11736915_at) / Fold change /veh HIST1H1D (11736915_at) / RFU CASKIN2 (11723855_a_at) / Fold change /veh CASKIN2 (11723855_a_at) / RFU LOC730098 (11760151_x_at) / Fold change /veh LOC730098 (11760151_x_at) / RFU OR4N2 (11742367_at) / Fold change /veh OR4N2 (11742367_at) / RFU PRRT2 (11749266_a_at) / Fold change /veh PRRT2 (11749266_a_at) / RFU SNX32 (11753110_a_at) / Fold change /veh SNX32 (11753110_a_at) / RFU CDHR5 (11726645_a_at) / Fold change /veh CDHR5 (11726645_a_at) / RFU RCAN1 (11760418_a_at) / Fold change /veh RCAN1 (11760418_a_at) / RFU FAM167A (11723789_a_at) / Fold change /veh FAM167A (11723789_a_at) / RFU FAM26E (11764081_at) / Fold change /veh FAM26E (11764081_at) / RFU ISYNA1 (11749810_s_at) / Fold change /veh ISYNA1 (11749810_s_at) / RFU ACY1 (11761880_at) / Fold change /veh ACY1 (11761880_at) / RFU 11764098_at / Fold change /veh 11764098_at / RFU SAMD14 (11745864_x_at) / Fold change /veh SAMD14 (11745864_x_at) / RFU NPB (11741838_a_at) / Fold change /veh NPB (11741838_a_at) / RFU TMPRSS6 (11731388_a_at) / Fold change /veh TMPRSS6 (11731388_a_at) / RFU KRTAP10-2 (11738614_at) / Fold change /veh KRTAP10-2 (11738614_at) / RFU ARHGAP8 /// PRR5-ARHGAP8 (11727945_x_at) / Fold change /veh ARHGAP8 /// PRR5-ARHGAP8 (11727945_x_at) / RFU KRTAP5-7 /// NADSYN1 (11734609_at) / Fold change /veh KRTAP5-7 /// NADSYN1 (11734609_at) / RFU RASL12 (11751679_a_at) / Fold change /veh RASL12 (11751679_a_at) / RFU CDKN2B (11736163_a_at) / Fold change /veh CDKN2B (11736163_a_at) / RFU PRF1 (11729649_at) / Fold change /veh PRF1 (11729649_at) / RFU, ZNF638 /// ZNF638-IT1 / Fold change vs veh, ZNF638 /// ZNF638-IT1 / RFU, PANK3 / Fold change vs veh, PANK3 / RFU, SH3YL1 / Fold change vs veh, SH3YL1 / RFU, ZEB2 / Fold change vs veh, ZEB2 / RFU, NRIP1 / Fold change vs veh, NRIP1 / RFU, PTTG1IP / Fold change vs veh, PTTG1IP / RFU, CAPN2 / Fold change vs veh, CAPN2 / RFU, MED14 / Fold change vs veh, MED14 / RFU, SNORA58 / Fold change vs veh, SNORA58 / RFU, C1orf63 / Fold change vs veh, C1orf63 / RFU, LRRFIP1 / Fold change vs veh, LRRFIP1 / RFU, NDUFAF7 / Fold change vs veh, NDUFAF7 / RFU, SLC12A2 / Fold change vs veh, SLC12A2 / RFU, IBTK / Fold change vs veh, IBTK / RFU, ESF1 / Fold change vs veh, ESF1 / Fold change vs veh, TMEM50B / RFU, TAOK1 / Fold change vs veh, TAOK1 / RFU, ACBD3 / Fold change vs veh, ACBD3 / RFU, TMA16 / Fold change vs veh, TMA16 / RFU, RWDD3 / Fold change vs veh, RWDD3 / RFU, BCAT1 / Fold change vs veh, BCAT1 / RFU, EDEM3 / Fold change vs veh, EDEM3 / RFU, TMEM33 / Fold change vs veh, TMEM33 / RFU, WDR75 / Fold change vs veh, WDR75 / RFU, AHCTF1 / Fold change vs veh, AHCTF1 / RFU, TFRC / Fold change vs veh, TFRC / RFU, ZDHHC17 / Fold change vs veh, ZDHHC17 / RFU, NOM1 / Fold change vs veh, NOM1 / RFU, ARL8B / Fold change vs veh, ARL8B / RFU, ZBTB11 / Fold change vs veh, ZBTB11 / RFU, TAMM41 / Fold change vs veh, TAMM41 / RFU, KIAA1704 /// LOC100996395 / Fold change vs veh, KIAA1704 /// LOC100996395 / RFU, ING1 / Fold change vs veh, ING1 / RFU, TRMT61B / Fold change vs veh, TRMT61B / RFU, FUBP3 / Fold change vs veh, FUBP3 / RFU, TP53 / Fold change vs veh, TP53 / RFU, TNKS2 / Fold change vs veh, TNKS2 / RFU, ZFP14 / Fold change vs veh, ZFP14 / RFU, ACTR2 / Fold change vs veh, ACTR2 / RFU, PPP3R1 / Fold change vs veh, PPP3R1 / RFU, PIK3R1 / Fold change vs veh, PIK3R1 / RFU, HNRNPA1 / Fold change vs veh, HNRNPA1 / RFU, RNF170 / Fold change vs veh, RNF170 / RFU, ZNF28 / Fold change vs veh, ZNF28 / RFU, RNGTT / Fold change vs veh, RNGTT / RFU, OGT / Fold change vs veh, OGT / RFU, BRD1 / Fold change vs veh, BRD1 / RFU, MARS / Fold change vs veh, MARS / RFU, ZNF655 / Fold change vs veh, ZNF655 / RFU, FAHD1 / Fold change vs veh, FAHD1 / RFU, BDP1 / Fold change vs veh, BDP1 / RFU, LRRCC1 / Fold change vs veh, LRRCC1 / RFU, ARID1A / Fold change vs veh, ARID1A / RFU, ZNF146 / Fold change vs veh, ZNF146 / RFU, ZNF330 / Fold change vs veh, ZNF330 / RFU, GPN3 / Fold change vs veh, GPN3 / RFU, C9orf123 / Fold change vs veh, C9orf123 / RFU, N4BP2L2 / Fold change vs veh, N4BP2L2 / RFU, ARFIP1 / Fold change vs veh, ARFIP1 / RFU, FAM179B / Fold change vs veh, FAM179B / RFU, BCL10 / Fold change vs veh, BCL10 / RFU, UHRF1BP1L / Fold change vs veh, UHRF1BP1L / RFU, BET1 / Fold change vs veh, BET1 / RFU, CNOT2 / Fold change vs veh, CNOT2 / RFU, ZNF268 / Fold change vs veh, ZNF268 / Fold change vs veh, ZNF507 / RFU, DGCR2 / Fold change vs veh, DGCR2 / RFU, WDSUB1 / Fold change vs veh, WDSUB1 / Fold change vs veh, HSP90B1 /// MIR3652 / RFU, ADSS / Fold change vs veh, ADSS / RFU, GK / Fold change vs veh, GK / RFU, ZNF148 / Fold change vs veh, ZNF148 / RFU, TAF9 / Fold change vs veh, TAF9 / RFU, SLC1A5 / Fold change vs veh, SLC1A5 / RFU, SLMO2 / Fold change vs veh, SLMO2 / RFU, ABCC4 / Fold change vs veh, ABCC4 / RFU, LOC101060439 /// RAP1B / Fold change vs veh, LOC101060439 /// RAP1B / RFU, RFX7 / Fold change vs veh, RFX7 / RFU, GTPBP10 / Fold change vs veh, GTPBP10 / RFU, CNEP1R1 / Fold change vs veh, CNEP1R1 / RFU, BIVM-ERCC5 /// ERCC5 / Fold change vs veh, BIVM-ERCC5 /// ERCC5 / RFU, ILF3 / Fold change vs veh, ILF3 / RFU 11762660_at / Fold change /veh 11762660_at / RFU VCAN (11757783_s_at) / Fold change /veh VCAN (11757783_s_at) / RFU DDX43 (11728927_at) / Fold change /veh DDX43 (11728927_at) / RFU KRT8 (11758188_x_at) / Fold change /veh KRT8 (11758188_x_at) / RFU NKD1 (11759106_at) / Fold change /veh NKD1 (11759106_at) / RFU SRD5A1 (11742802_a_at) / Fold change /veh SRD5A1 (11742802_a_at) / RFU TPSAB1 /// TPSB2 (11721975_s_at) / Fold change /veh TPSAB1 /// TPSB2 (11721975_s_at) / RFU GSTM3 (11746129_a_at) / Fold change /veh GSTM3 (11746129_a_at) / RFU IL23R (11737362_x_at) / Fold change /veh IL23R (11737362_x_at) / RFU TMEM51 (11727254_a_at) / Fold change /veh TMEM51 (11727254_a_at) / RFU PIWIL2 (11732686_x_at) / Fold change /veh PIWIL2 (11732686_x_at) / RFU ORM1 (11744905_x_at) / Fold change /veh ORM1 (11744905_x_at) / RFU CCDC152 (11743942_at) / Fold change /veh CCDC152 (11743942_at) / RFU ECM1 (11717891_a_at) / Fold change /veh ECM1 (11717891_a_at) / RFU IL23R (11748794_a_at) / Fold change /veh IL23R (11748794_a_at) / RFU TNFAIP8L3 (11732012_x_at) / Fold change /veh TNFAIP8L3 (11732012_x_at) / RFU MBOAT4 (11741988_at) / Fold change /veh MBOAT4 (11741988_at) / RFU 11764193_at / Fold change /veh 11764193_at / RFU TMEM53 (11763286_at) / Fold change /veh TMEM53 (11763286_at) / RFU MAGEB2 (11727129_at) / Fold change /veh MAGEB2 (11727129_at) / RFU TMEM200A (11744735_a_at) / Fold change /veh TMEM200A (11744735_a_at) / RFU CCDC152 (11751479_a_at) / Fold change /veh CCDC152 (11751479_a_at) / RFU FAM211A (11726209_a_at) / Fold change /veh FAM211A (11726209_a_at) / RFU RGS16 (11746705_a_at) / Fold change /veh RGS16 (11746705_a_at) / RFU VCAN (11755009_s_at) / Fold change /veh VCAN (11755009_s_at) / RFU RHOB (11743442_s_at) / Fold change /veh RHOB (11743442_s_at) / RFU RGS16 (11720943_a_at) / Fold change /veh RGS16 (11720943_a_at) / RFU RGS16 (11720944_at) / Fold change /veh RGS16 (11720944_at) / RFU, VPS4B / Fold change vs veh, VPS4B / RFU, CREB1 / Fold change vs veh, CREB1 / RFU, DNAJC13 / Fold change vs veh, DNAJC13 / RFU, GNAQ / Fold change vs veh, GNAQ / RFU, CDK5R1 / Fold change vs veh, CDK5R1 / RFU, ZRANB3 / Fold change vs veh, ZRANB3 / RFU, CUL4A / Fold change vs veh, CUL4A / RFU, CCNY / Fold change vs veh, CCNY / RFU, UFL1 / Fold change vs veh, UFL1 / RFU, COG3 / Fold change vs veh, COG3 / RFU, DIAPH2 / Fold change vs veh, DIAPH2 / RFU, SKA2 / Fold change vs veh, SKA2 / RFU, AFF3 / Fold change vs veh, AFF3 / RFU, LMF1 / Fold change vs veh, LMF1 / RFU, IPO11 / Fold change vs veh, IPO11 / RFU, DFFB / Fold change vs veh, DFFB / RFU, FOXP1 / Fold change vs veh, FOXP1 / RFU, CARD8 / Fold change vs veh, CARD8 / RFU, STRN3 / Fold change vs veh, STRN3 / RFU, ADK / Fold change vs veh, ADK / RFU, RASSF2 / Fold change vs veh, RASSF2 / RFU, WIPF1 / Fold change vs veh, WIPF1 / RFU, LARP1B / Fold change vs veh, LARP1B / RFU, RASA1 / Fold change vs veh, RASA1 / RFU, RB1 / Fold change vs veh, RB1 / RFU, PPFIA1 / Fold change vs veh, PPFIA1 / RFU, MAT2A / Fold change vs veh, MAT2A / RFU, CCT5 / Fold change vs veh, CCT5 / RFU, WDR92 / Fold change vs veh, WDR92 / RFU, CUX1 / Fold change vs veh, CUX1 / RFU, TTC7A / Fold change vs veh, TTC7A / RFU, TMEM135 / Fold change vs veh, TMEM135 / RFU, DEPTOR / Fold change vs veh, DEPTOR / RFU, CPM / Fold change vs veh, CPM / RFU, DNAJB6 / Fold change vs veh, DNAJB6 / RFU, CACNA2D3 / Fold change vs veh, CACNA2D3 / RFU, DTX4 / Fold change vs veh, DTX4 / RFU, TFCP2 / Fold change vs veh, TFCP2 / RFU, GMCL1 /// GMCL1P1 / Fold change vs veh, GMCL1 /// GMCL1P1 / RFU, AEBP2 / Fold change vs veh, AEBP2 / RFU, SNHG1 /// SNORD22 /// SNORD25 /// SNORD26 /// SNORD27 /// SNORD28 /// SNORD29 /// SNORD31 / Fold change vs veh, SNHG1 /// SNORD22 /// SNORD25 /// SNORD26 /// SNORD27 /// SNORD28 /// SNORD29 /// SNORD31 / Fold change (Aza/veh), C12orf56 (ProbeSet 11735607_a_at) / Fold change (ACY-1035/veh), C12orf56 (ProbeSet 11735607_a_at) / Fold change (Aza/veh), FGFR1OP (ProbeSet 11751329_s_at) / Fold change (ACY-1035/veh), FGFR1OP (ProbeSet 11751329_s_at) / Fold change (Aza/veh), VPS36 (ProbeSet 11739960_a_at) / Fold change (ACY-1035/veh), VPS36 (ProbeSet 11739960_a_at) / RFU SYPL1 (11715823_x_at) / Fold change /veh SYPL1 (11715823_x_at) / RFU IGFBP7 (11715501_s_at) / Fold change /veh IGFBP7 (11715501_s_at) / RFU REEP3 (11722064_at) / Fold change /veh REEP3 (11722064_at) / RFU IGLL1 (11728026_x_at) / Fold change /veh IGLL1 (11728026_x_at): dose or concentration left out as unconfirmed
Details: MV-4-11 cells, 48 hours

SMILES: Nc1ccc(-c2cccs2)cc1NC(=O)c1ccc2c(c1)cc(C1CC1)n2CCN1CCOCC1 [ACY-1035]
- RFU CCDC152 (11743942_at): 5.45 RFU
